Like-named read-outs stand apart in the source and are kept apart here.
How the values were obtained:
[1] = system: standard strains of Gram-positive bacteria; assay: MIC microdilution, standard Gram-positive strains overall (range given); format: cell-based; conditions: standard S. aureus and S. epidermidis strains
[2] = system: HL-60/vinc; assay: Antiproliferative MTT assay, HL-60/vinc; format: cell-based, human; conditions: for IC50: Homo sapiens, HL60/vinc, 72 h, read-out: IC50 HL-60/vinc; for IR HL-60/vinc: IR = IC50 HL-60/vinc / IC50 HL-60; for SI HL-60/vinc: SI = IC50 BALB/3T3 / IC50 HL-60/vinc
How it was run: (§1)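 Leukemia cells seeded at 10^4 per well and exposed 24 h later to four concentrations (100–0.1 µg/mL) for 72 h; HL-60/vinc cultured with doxorubicin. MTT added 4 h, formazan lysed 24 h, absorbance 570 nm; IC50 from triplicates, ≥3 independent experiments.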

[3] = system: MRSA; assay: MIC microdilution, MRSA strains overall (range given); format: cell-based, Staphylococcus aureus; conditions: hospital MRSA strains
[4] = system: HL-60; assay: Antiproliferative MTT assay, HL-60; format: cell-based, human; conditions: for IC50: Homo sapiens, read-out: IC50 HL-60; for SI HL-60: SI = IC50 BALB/3T3 / IC50 HL-60
How it was run: as §1

[5] = system: breast cancer stem cells (CSCs); parameters: method as in PMID 19682730; conditions: versus Taxol; cited from earlier work
[6] = system: HL-60, HL-60/vinc, LoVo, LoVo/dx; assay: Antiproliferative assays, all four cancer cell lines (range given); format: cell-based; conditions: Homo sapiens, read-out: IC50 (range over the cancer cell lines)
Text: Four human cancer cell lines and one normal cell line were used to evaluate anticancer activity of SAL and its N-benzyl amides: human acute promyelocytic leukemia (HL-60) and its vincristine resistant subline (HL-60/vinc), human colon adenocarcinoma cell lines sensitive (LoVo) and resistant to doxorubicin (LoVo/dx) as well as also normal murine embryonic fibroblast cell line (BALB/3T3). The BALB/3T3 cell line was purchased from the American Type Culture Collection (ATCC Rockville, MD, USA), HL-60 cell line from European Type Culture Collection by courtesy of Professor Spik and Dr Mazurier (Laboratory of Biological Chemistry USTL, Lille, France) and HL-60/vinc, LoVo and LoVo/dx by courtesy of Prof. E. Borowski (Technical University of Gdańsk, Gdańsk, Poland). All the cell lines are maintained in the Institute of Immunology and Experimental Therapy (IIET), Wrocław, Poland.
Human leukemia cells were cultured in ISCOVE medium (IIET, Wroclaw, Polond) containing 10% fetal bovine serum and 2 mM L-glutamine (Sigma Aldrich) and 1 µg/100 mL […] for HL-60/vinc (Sigma Aldrich). Human colon adenocarcinoma cell lines were cultured in mixture of OptiMEM and RPMI 1640 (1:1) medium (IIET) supplemented with 5% fetal bovine serum (Thermo Fisher Scientific, Waltham, MA, USA), 2 mM L-glutamine, 1 mM sodium pyruvate (Sigma Aldrich) and 10 µg/100 mL doxorubicin for LoVo/dx (Sigma Aldrich). Murine embryonic fibroblast cells were cultured in Dulbecco medium (Gibco, Darmstadt, Germany) supplemented with 10% fetal bovine serum (Thermo Fisher Scientific) and 2 mM L-glutamine (Sigma Aldrich). All culture media contained antibiotics: 100 U/mL penicillin (Sigma Aldrich) and 100 µg/mL streptomycin (Polfa-Tarchomin, City, Poland). All cell lines were cultured during entire experiment in humid atmosphere at 37 °C and 5% CO2.
Twenty four hours before adding the tested compounds all cell lines were seeded in 96-well plates (Sarstedt, Nümbrecht, Germany) in appropriate media with 10^4 cells per well. All cell lines were exposed to each tested agent at four different concentrations from the range 100 to 0.1 µg/mL for 72 h. The cells were also exposed to the reference drugs: cisplatin (Accord, London, UK) and doxorubicin hydrochloride (Fluka, St. Louis, MO, USA). Additionally, all cell lines were exposed to DMSO (the solvent used for tested compounds, Sigma Aldrich) at the concentrations corresponding to those in the tested agent dilutions. For adherent cells sulphorodamine B assay was performed and MTT assay for leukemia cells.
After 72 h of incubation with tested compounds the cells were fixed in situ by gently adding of 50 µL per well of cold 50% trichloroacetic acid TCA (Avantor Performance Materials, City, Poland) and were incubated at 4 °C for 1 h. Then the wells were washed four times with water and air-dried. Next, 50 µL of 0.2% solution of sulphorodamine B (Sigma Aldrich) in 1% acetic acid (Avantor Performance Materials) were added to each well and plates were incubated at room temperature for 0.5 h. After incubation time, unbound dye was removed by washing plates four times with 1% acetic acid, whereas the stain bound to cells was solubilized with 150 µL of 10 mM Tris base (Sigma Aldrich). Absorbance of each solution was read at Synergy H4 photometer (BioTek Instruments, Winooski, VT, USA) at 540 nm wavelength.
Proliferation inhibition of leukemia cells by tested compounds was measured by means of MTT assay. […]

SMILES	MIC (range over standard strains of Gram-positive bacteria) [1]	IC50 [2]	IR HL-60/vinc [2]	SI HL-60/vinc [2]	MIC (range over MRSA strains) [3]	IC50 ([4]; HL-60, 72 h, MTT, mean ± SD, NA: not active in concentrations used (up to 100 µg/mL))	SI HL-60 [4]	fold more effective than Taxol [5]	IC50 ([4]; HL-60, 72 h)	IC50 [6]
CC[C@H](C(=O)NCc1ccc(F)cc1)C1CC[C@H](C)C([C@@H](C)[C@H](O)[C@H](C)C(=O)[C@H](CC)C2O[C@]3(C=C[C@@H](O)C4(CC[C@@](C)(C5CC[C@](O)(CC)[C@H](C)O5)O4)O3)[C@H](C)C[C@@H]2C)O1 (stereo partly drawn) [F-p]	16 to 32 µg/mL	11.8 ± 2.56 µM	3.28	0.73	16 to 64 µg/mL	3.6 ± 0.69 µM	2.40	–	–	–
CC[C@H](C(=O)NCc1ccc([N+](=O)[O-])cc1)C1CC[C@H](C)C([C@@H](C)[C@H](O)[C@H](C)C(=O)[C@H](CC)C2O[C@]3(C=C[C@@H](O)C4(CC[C@@](C)(C5CC[C@](O)(CC)[C@H](C)O5)O4)O3)[C@H](C)C[C@@H]2C)O1 (stereo partly drawn) [NO2-p]	128 µg/mL	–	–	–	–	–	–	–	–	–
CC[C@@H](C(=O)[C@@H](C)[C@@H](O)[C@H](C)[C@@H]1O[C@@H]([C@@H](CC)C(=O)O)CC[C@@H]1C)[C@H]1O[C@]2(C=C[C@@H](O)[C@]3(CC[C@@](C)([C@H]4CC[C@](O)(CC)[C@H](C)O4)O3)O2)[C@H](C)C[C@@H]1C [SAL, Salinomycin]	–	2.33 ± 0.12 µM	7.06	5.59	–	–	39.45	~100 fold	0.33 ± 0.12 µM	0.33 to 2.33 µM

— publication PMC6271077, “Synthesis, Anticancer and Antibacterial Activity of Salinomycin N-Benzyl Amides” (Molecules, 2014)
